One assay relates to HL-60 cells. Put plainly: HL-60 differentiation (nitro blue tetrazolium reduction). Format: cell-based, human. The note with it: FIG. 2; for EC50: differentiation of HL-60 cells into monocytes, read-out: EC50, HL-60 cell differentiation. As to the method: The study drugs were dissolved in ethanol and the concentrations determined using UV spectrophotometry. Serial dilutions were prepared so that a range of drug concentrations could be tested without changing the final concentration of ethanol (≦0.2%) present in the cell cultures.
Human promyelocytic leukemia (HL60) cells were grown in RPMI-1640 medium containing 10% fetal bovine serum. The cells were incubated at 37° C. in the presence of 5% CO2.
HL60 cells were plated at 1.2×10^5 cells/ml. Eighteen hours after plating, cells in duplicate were treated with drug. Four days later, the cells were harvested and a nitro blue tetrazolium reduction assay was performed (Collins et al., 1979; J. Exp. Med. 149:969-974). The percentage of differentiated cells was determined by counting a total of 200 cells and recording the number that contained intracellular black-blue formazan deposits. Verification of differentiation to monocytic cells was determined by measuring phagocytic activity (data not shown).

The subject of assay [1] is 24-hydroxylase (24Ohase) gene promoter. Kind of assay: In vitro transcription assay, luciferase reporter in ROS 17/2.8 (bone) cells. Type of assay: cell-based. Conditions: FIG. 3; for EC50: ROS 17/2.8 cells, 16 h after dosing, read-out: EC50, transcriptional activity in bone cells (24-hydroxylase gene). As to the method:
Transcription activity was measured in ROS 17/2.8 (bone) cells that were stably transfected with a 24-hydroxylase (24Ohase) gene promoter upstream of a luciferase reporter gene (Arbour et al., 1998). Cells were given a range of doses. Sixteen hours after dosing the cells were harvested and luciferase activities were measured using a luminometer.
RLU=relative luciferase units.
(A reporter such as luciferase makes a cellular process visible.)

For assay [2], the system named is vitamin D-deficient rats. Put plainly: Bone calcium mobilization (serum calcium). Format: in vivo, rat. The note with it: FIG. 4; for serum calcium (bone calcium mobilization): 260 pmol/day ip for 4 consecutive days, rats on low calcium diet (0.02%); for bone calcium mobilization activity (in words): vitamin D-deficient rats, low calcium diet. As to the method: (§1) Male, weanling Sprague-Dawley rats were placed on Diet 11 (0.47% Ca) diet +AEK oil for one week followed by Diet 11 (0.02% Ca)+AEK oil for 3 weeks. The rats were then switched to a diet containing 0.47% Ca for one week followed by two weeks on a diet containing 0.02% Ca. Dose administration began during the last week on 0.02% calcium diet. Four consecutive ip doses were given approximately 24 hours apart. Twenty-four hours after the last dose, blood was collected from the severed neck and the concentration of serum calcium determined as a measure of bone calcium mobilization. The first 10 cm of the intestine was also collected for intestinal calcium transport analysis using the everted gut sac method.

The target of assay [3] is T1, full-length recombinant rat vitamin D receptor (Rattus norvegicus, UniProt P13053).
T1 construct: Full-length recombinant rat receptor was expressed in E. coli BL21 (DE3) Codon Plus RIL cells; histidine tag (C); made in house; host or cells: E. coli BL21 (DE3) Codon Plus RIL
T1 sequence (P13053 1-423): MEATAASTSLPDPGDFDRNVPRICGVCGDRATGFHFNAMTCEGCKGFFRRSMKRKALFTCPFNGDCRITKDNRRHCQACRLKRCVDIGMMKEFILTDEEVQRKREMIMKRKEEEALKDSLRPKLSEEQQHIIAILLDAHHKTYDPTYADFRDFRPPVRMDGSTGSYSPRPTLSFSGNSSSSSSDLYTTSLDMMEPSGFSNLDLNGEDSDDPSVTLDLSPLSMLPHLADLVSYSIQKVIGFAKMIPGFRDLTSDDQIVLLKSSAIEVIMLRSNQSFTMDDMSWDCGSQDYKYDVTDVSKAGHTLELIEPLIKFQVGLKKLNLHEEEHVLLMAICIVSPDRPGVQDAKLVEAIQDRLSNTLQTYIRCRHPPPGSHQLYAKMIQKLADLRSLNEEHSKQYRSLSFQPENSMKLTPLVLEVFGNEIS
Put plainly: Vitamin D receptor binding, competition with [3H]-1,25(OH)2D3. The note with it: FIG. 1. The procedure: Full-length recombinant rat receptor was expressed in E. coli BL21 (DE3) Codon Plus RIL cells and purified to homogeneity using two different column chromatography systems. The first system was a nickel affinity resin that utilizes the C-terminal histidine tag on this protein. The protein that was eluted from this resin was further purified using ion exchange chromatography (S-Sepharose Fast Flow). Aliquots of the purified protein were quick frozen in liquid nitrogen and stored at −80° C. until use. For use in binding assays, the protein was diluted in TEDK50 (50 mM Tris, 1.5 mM EDTA, pH7.4, 5 mM DTT, 150 mM KCl) with 0.1% Chaps detergent. The receptor protein and ligand concentration were optimized such that no more than 20% of the added radiolabeled ligand was bound to the receptor.
Radiolabeled and unlabeled ligands were added to 100 mcl of the diluted protein at a final ethanol concentration of ≦10%, mixed and incubated overnight on ice to reach binding equilibrium. The following day, 100 mcl of hydroxylapatite slurry (50%) was added to each tube and mixed at 10-minute intervals for 30 minutes. […] Total binding was determined from the tubes containing only radiolabeled ligand.

Assay [4] relates to vitamin D-deficient rats. Put plainly: Intestinal calcium transport (everted gut sac method). Format: in vivo, rat. Conditions: FIG. 5. The procedure:
as §1

Where two headings read alike, the source gives them in different places.

`C=C1/C(=C\C=C2/CCC[C@]3(C)[C@@H]([C@H](C)CCCC(C)(C)O)CC[C@@H]23)C[C@@H](O)C[C@@H]1O` [1,25(OH)2D3, 1α,25-dihydroxyvitamin D3]: the EC50 (in general, the concentration needed to bring the measured effect to its halfway point) with HL-60 cells is 2 nM. In assay [1], the EC50 amounted to 0.2 nM. Further, in the assay on vitamin D-deficient rats [2], the “serum calcium (bone calcium mobilization)” value is listed as 6.1 mg/dL and the “bone calcium mobilization activity (in words)” value was “increased serum calcium levels at all dosages”.

Consider `C=C1[C@H](O)CC(=C/C=C2\CCC[C@]3(C)[C@@H]([C@@H](C)/C=C/CC(C)(C)O)CC[C@@H]23)C[C@H]1O` [Compound N-23, (20S,22E)-2-Methylene-19-nor-22-ene-1α,25-dihydroxyvitamin D3], for which the half-maximal effective concentration (EC50) in the assay on HL-60 cells (Homo sapiens) is 0.1 nM; in assay [1], 0.02 nM. Further, the “potency on HL-60 cell differentiation relative to 1,25(OH)2D3” value in the assay on HL-60 cells (fold more potent than 1,25(OH)2D3) is “about 10 times”. For the same molecule, the “affinity to the nuclear vitamin D receptor compared to 1,25-(OH)2D3 (in words)” value in assay [3] (full length recombinant rat VDR) was “same affinity”. In assay [3] (full-length recombinant rat vitamin D receptor, read-out: Ki, competition with [3H]-1,25(OH)2D3 for binding to VDR), the inhibitory constant (Ki) (usually the equilibrium dissociation constant of an inhibitor or competing ligand from its target) worked out at 0.06 nM. For the same molecule, the “intestinal calcium transport activity compared to 1,25(OH)2D3” value with vitamin D-deficient rats [4] (32 pmol/day for 4 consecutive days) is listed as “less activity”. Also, the “intestinal calcium transport, dose dependence (in words)” value in the assay with vitamin D-deficient rats [4] (vitamin D-deficient rats) is “dose dependent manner”. The “potency in increasing transcription of the 24-hydroxylase gene relative to 1,25(OH)2D3” value in assay [1] (bone cells, fold more potent than 1,25(OH)2D3) is listed as “about 10 times”. In addition, in the assay with vitamin D-deficient rats [2], the “serum calcium (bone calcium mobilization)” value was 6.8 mg/dL. The “bone calcium mobilization activity (in words)” value in the assay on vitamin D-deficient rats [2] was “slightly more bone calcium mobilization activity”.

The record behind these values is US8445468B2, “(20S,22E)-2-methylene-19-nor-22-ene-1α,25-dihydroxyvitamin D3” (Wisconsin Alumni Research Foundation, priority 2009, dated 2013).
